Results reported in patent US6800656B2, “Tricyclic compounds and method of treating herpes virus” (Warner Lambert Company, priority 2000, dated 2004).

What was measured:
[1] = tested on: herpes simplex virus 1 (HSV); test: microbe, parasite or virus in culture; type: cell-based; conditions: for EC50: Human alphaherpesvirus 1, Vero; for TI (EC50/TC50): therapeutic index, HSV-1, Vero cells
Method: Vero (African Green Monkey kidney) cells are infected at a multiplicity of infection of 0.01 with the virus, and serial dilutions of the compound in dimethyl sulfoxide (DMSO) are added. The final concentration of DMSO in all wells is 1%. DMSO is added to control wells. The infection is allowed to proceed for 2 days at which time the β-gal activity in cell lysates is measured. Activity in wells containing compound is compared to control wells and percent inhibition determined.

in vitro = type: cell-based; conditions: for CC50: African green monkey; for CC50 at 7 days: human
Method: Anti-human cytomegalovirus (HCMV) activity is determined in a yield reduction assay utilizing a recombinant HCMV (RC256) that produces β-gal (Spaete, R. R.; Mocarski, E. S. Proceedings of the National Academy of Sciences USA 84:7213-7217, 1987). Primary human diploid fibroblasts (HFF cells) are infected at an moi of 0.01 with RC256, and serial dilutions of the compound in DMSO are added. The final concentration of DMSO in all wells is 1%. The infection is allowed to proceed for 7 days at which time the β-gal activity in cell lysates is measured. Activity in wells containing compound is compared to control wells and percent inhibition determined.
Cellular toxicity assays: Cellular toxicity is measured in HFF cells. Cells are plated in 96 well plates at 1×10^4 cells/well. Serial dilutions of compounds are added to the wells in DMSO, with the final concentration of DMSO in all wells at 1%, in a total volume of 200 μL. The plates are maintained in a 37° C. incubator for 7 days. 50 μL of a solution of XTT (sodium-3′[1-(phenyl-amino-carbonyl)-3,-tetrazolium]-bis(bis(4-methoxy-6-nitro)-benzene sulfonic acid hydrate) (3×10^−4 mg/ml) is added to each well, and the plates returned to the incubator for 4 hours, after which the A450 (absorbance at wavelength of 450 nm) for each well is measured in a plate reader. (Roehm, N. W., et al J. Immunol. Meth. 142:257-265, 1991). Toxicity is determined by comparison of the OD (optical density) of a well containing compound to the OD of wells containing DMSO only.

[2] = tested on: human cytomegalovirus (HCMV); test: microbe, parasite or virus in culture; type: cell-based; conditions: Human betaherpesvirus 5, HFF
Method: Primary human diploid fibroblasts (HFF cells) are infected at an moi of 0.01 with RC256, and serial dilutions of the compound in DMSO are added. The final concentration of DMSO in all wells is 1%. The infection is allowed to proceed for 7 days at which time the β-gal activity in cell lysates is measured. Activity in wells containing compound is compared to control wells and percent inhibition determined.

SMILES | melting point [°C] | EC50 [1] [nM] | TI (EC50/TC50) [1] | CC50 (in vitro) [µM] | CC50 at 7 days (in vitro) [µM] | EC50 [2] [nM]
FC(F)(F)c1ccc(CNc2ccc3oc4ccccc4c3c2)cc1 [Example 57, Dibenzofuran-2-yl-(4-trifluoromethyl-benzyl)-amine] | 89 to 90 | 810 | >124 | > 100 | > 100 | 1700
CCCC(Cc1ccccc1)Nc1ccc2oc3ccccc3c2c1 (stereo not drawn) [Example 65, (1-Benzyl-butyl)-dibenzofuran-2-yl-amine] | – | – | – | – | > 100 | 3000
c1cnc2c(c1)Oc1cc(NCc3cccc4ccccc34)ccc1S2 [Example 93, Naphthalene-1-ylmethyl-(10-oxa-9-thia-1-aza-anthracen-6-yl)-amine] | – | 1300 | >77 | > 100 | – | –
CCn1c2ccccc2c2cc(NCc3cccc(F)c3C)ccc21 [Example 217, (9-Ethyl-9H-carbazol-3-yl)-(3-fluoro-2-methyl-benzyl)-amine] | – | 320 | >313 | > 100 | – | –
O=[N+]([O-])c1ccc(CNc2ccc3oc4ccccc4c3c2)cc1 [Example 60, Dibenzofuran-2-yl-(4-nitro-benzyl)-amine] | – | 500 | >200 | > 100 | > 100 | 1300
COc1ccc(CNc2ccc3oc4ccc(Cl)cc4c3c2)cc1F [Example 139, (8-Chloro-dibenzofuran-2-yl)-(3-fluoro-4-methoxy-benzyl)-amine] | – | 400 | >250 | > 100 | – | –
CSc1ccc(CNc2ccc3oc4ccccc4c3c2)cc1 [Example 61, Dibenzofuran-2-yl-(4-methylsulfanyl-benzyl)-amine] | 103 to 104 | – | – | – | > 100 | 2900
COc1ccc(CNc2cccc3c2oc2ccccc23)cc1 [Example 150, Dibenzofuran-4-yl-(4-methoxy-benzyl)-amine] | – | 850 | >118 | > 100 | – | –
Nc1nc(O)c2ncn(COC(CO)CO)c2n1 [Ganciclovir] | – | – | – | – | > 100 | 2600
COc1cc(CNc2ccc3oc4ccccc4c3c2)cc(OC)c1 [Example 56, Dibenzofuran-2-yl-(3,5-dimethoxy-benzyl)-amine] | 87 to 88 | 700 | >143 | > 100 | – | –
Fc1ccc(CNc2ccc3c(c2)Oc2ccccc2S3)c(F)c1 [Example 208, (2,4-Difluoro-benzyl)-phenoxathiin-3-yl-amine] | – | 260 | >385 | > 100 | – | –

Continued, in another order:

melting point [°C] | SMILES | EC50 [1] [nM] | TI (EC50/TC50) [1] | CC50 (in vitro) [µM] | CC50 at 7 days (in vitro) [µM] | EC50 [2] [nM]
217 to 218 | O=C1c2ccccc2C(=O)N1c1ccc2oc3ccccc3c2c1 | – | – | – | – | –
193 to 195 | c1ccc2c(c1)CN(c1ccc3oc4ccccc4c3c1)C2 | – | – | – | – | –
91 to 93 | c1ccc(Oc2ccc(CNc3ccc4oc5ccccc5c4c3)cc2)cc1 | – | – | – | – | –
93 to 94 | c1ccc(Oc2cccc(CNc3ccc4oc5ccccc5c4c3)c2)cc1 | – | – | – | – | –
94 to 95 | CC(Nc1ccc2oc3ccccc3c2c1)c1ccccc1 (stereo not drawn) | – | – | – | – | –
84 to 85 | Cc1ccccc1CNc1ccc2oc3ccccc3c2c1 | – | – | – | – | –
81 to 82 | c1ccc(CNc2ccc3oc4ccccc4c3c2)cc1 | – | – | – | – | –
62 to 63 | c1ccc2c(c1)oc1ccc(NCc3ccsc3)cc12 | – | – | – | – | –
75 to 77 | FC(F)(F)Oc1ccc(CNc2ccc3oc4ccccc4c3c2)cc1 | – | – | – | – | –
85 to 86 | c1ccc2c(c1)oc1ccc(NCc3ccc4c(c3)OCO4)cc12 | – | – | – | – | –
145 to 147 | Oc1ccccc1CNc1ccc2oc3ccccc3c2c1 | – | – | – | – | –
